Data reported in patent US7138361B2, “Herbicidal heterocycles” (E. I. du Pont de Nemours and Company, priority 2000, dated 2006).

Assays:
Format in all cases: in vivo
[1] = test system: lambsquarters (Chenopodium album); experiment: Test C preemergence
Description: (§1) Seeds of plant species selected from bermudagrass (Cynodon dactylon), Surinam grass (Brachiaria decumbens), cocklebur (Xanthium strumarium), corn (Zea mays), crabgrass (Digitaria sanguinalis), woolly cupgrass (Eriochloa villosa), giant foxtail (Setaria faberii), goosegrass (Eleusine indica), johnsongrass (Sorghum halepense), kochia (Kochia scoparia), lambsquarters (Chenopodium album), morningglory (Ipomoea hederacea), yellow nutsedge (Cyperus esculentus), pigweed (Amaranthus retroflexus), common ragweed (Ambrosia elatior), soybean (Glycine max) and velvetleaf (Abutilon theophrasti) were planted and treated preemergence with test chemicals formulated in a non-phytotoxic solvent mixture which included a surfactant.
(§2) At the same time, plants selected from these crop and weed species and also winter barley (Hordeum vulgare), blackgrass (Alopecurus myosuroides), canary grass (Phalaris minor), chickweed (Stellaria media), downy brome (Bromus tectorum), green foxtail (Setaria viridis), Italian ryegrass (Lolium multiflorum), wheat (Triticum aestivum), wild oat (Avena fatua) and windgrass (Apera spica-venti) were treated with postemergence applications of some of the test chemicals formulated in the same manner. Plants ranged in height from 2 to 18 cm (1- to 4-leaf stage) for postemergence treatments. Plant species in the flooded paddy test consisted of rice (Oryza saliva), smallflower flatsedge (Cyperus difformis), duck salad (Heteranthera limosa) and barnyardgrass (Echinochloa crus-galli) grown to the 2-leaf stage for testing. Treated plants and controls were maintained in a greenhouse for 12 to 14 days, after which time all species were compared to controls and visually evaluated. Plant response ratings, summarized in Table C, are based on a scale of 0 to 100 where 0 is no effect and 100 is complete control. A dash (-) response means no test result.

[2] = test system: giant foxtail (Setaria faberii); experiment: Test C preemergence
Description: as §1, §2

soybean (Glycine max) = experiment: Test C preemergence
Description: as §1, §2

kochia (Kochia scoparia) = experiment: Test C preemergence
Description: as §1, §2

corn (Zea mays) = experiment: Test C preemergence
Description: as §1, §2

[3] = test system: pigweed (Amaranthus retroflexus); experiment: Test C preemergence
Description: as §1, §2

[4] = test system: woolly cupgrass (Eriochloa villosa); experiment: Test C preemergence
Description: as §1, §2

Nightshade = experiment: Test C preemergence
Description: as §1, §2

[5] = test system: crabgrass (Digitaria sanguinalis); experiment: Test C preemergence
Description: as §1, §2

[6] = test system: Surinam grass (Brachiaria decumbens); experiment: Test C preemergence
Description: as §1, §2

[7] = test system: smallflower flatsedge (Cyperus difformis); experiment: Test C flooded paddy test; conditions: for Flatsedge plant response rating: Flooded Paddy, scale 0 to 100, 0 no effect, 100 complete control; for Plant response rating, Flatsedge / Plant response rating (scale 0 to 100), Flatsedge: flooded paddy test; for Plant response rating, Flatsedge: scale 0 to 100 (0 no effect, 100 complete control)
Method in brief: (§3)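 2-leaf-stage plants, flooded paddy; treated; greenhouse 12–14 days; compared with controls by eye; rated 0–100 (0 none, 100 complete control).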

[8] = test system: barnyardgrass (Echinochloa crus-galli); experiment: Test C flooded paddy test; conditions: for Barnyardgrass plant response rating: Flooded Paddy, scale 0 to 100, 0 no effect, 100 complete control; for Plant response rating, Barnyardgrass / Plant response rating (scale 0 to 100), Barnyardgrass: flooded paddy test; for Plant response rating, Barnyardgrass: scale 0 to 100 (0 no effect, 100 complete control)
Method in brief: as §3

[9] = test system: duck salad (Heteranthera limosa); experiment: Test C flooded paddy test; conditions: for Ducksalad plant response rating: Flooded Paddy, scale 0 to 100, 0 no effect, 100 complete control; for Plant response rating, Ducksalad / Plant response rating (scale 0 to 100), Ducksalad: flooded paddy test; for Plant response rating, Ducksalad: scale 0 to 100 (0 no effect, 100 complete control)
Method in brief: as §3

[10] = test system: goosegrass (Eleusine indica); experiment: Test C preemergence
Description: as §1, §2

[11] = test system: yellow nutsedge (Cyperus esculentus); experiment: Test C preemergence
Description: as §1, §2

Sunflower = experiment: Test C preemergence; conditions: Rate 125 g/ha; scale 0 to 100, 0 no effect, 100 complete control
Description: as §1, §2

[12] = test system: bermudagrass (Cynodon dactylon); experiment: Test C preemergence
Description: as §1, §2

[13] = test system: johnsongrass (Sorghum halepense); experiment: Test C preemergence
Description: as §1, §2

[14] = test system: morningglory (Ipomoea hederacea); experiment: Test C preemergence
Description: as §1, §2

[15] = test system: cocklebur (Xanthium strumarium); experiment: Test C preemergence
Description: as §1, §2

[16] = test system: velvetleaf (Abutilon theophrasti); experiment: Test C preemergence
Description: as §1, §2

[17] = Rate 62 g/ha, scale 0 to 100, 0 no effect, 100 complete control
[18] = preemergence, Rate 31 g/ha, scale 0 to 100
[19] = preemergence, Rate 125 g/ha, scale 0 to 100, 0 no effect, 100 complete control
[20] = Rate 62 g/ha; scale 0 to 100, 0 no effect, 100 complete control
[21] = Rate 125 g/ha, scale 0 to 100, 0 no effect, 100 complete control
[22] = Rate 16 g/ha, visually evaluated after 12 to 14 days, 0 = no effect, 100 = complete control
[23] = under head Rate 16 g/ha, (own rate not given), after 12 to 14 days
[24] = preemergence, Rate 250 g/ha, visual evaluation after 12 to 14 days
[25] = preemergence, Rate 250 g/ha, scale 0 to 100, 0 no effect, 100 complete control

COc1cc(N2CCC(n3ccc(C(C)(C)C)n3)C2=O)ccc1C (stereo not shown) [Compound 42]
Plant response rating, Lambsquarters [1, 17]: 100 | Plant response rating, Lambsquarters [1, 18]: 20 | Plant response rating, Lambsquarters [1, 19]: 100 | Plant response rating, Foxtail, Giant [2, 17]: 50 | Plant response rating, Foxtail, Giant [2, 18]: 30 | Plant response rating, Foxtail, Giant [2, 19]: 100 | Plant response rating, Soybean (soybean (Glycine max); [17]): 50 | Plant response rating, Soybean (soybean (Glycine max); [18]): 20 | Plant response rating, Soybean (soybean (Glycine max); [19]): 50 | Plant response rating, Kochia (kochia (Kochia scoparia); [17]): 50 | Plant response rating, Kochia (kochia (Kochia scoparia); [18]): 20 | Plant response rating, Kochia (kochia (Kochia scoparia); [19]): 100 | Plant response rating, Corn (corn (Zea mays); [17]): 20 | Plant response rating, Corn (corn (Zea mays); [18]): 0 | Plant response rating, Corn (corn (Zea mays); [19]): 40 | Plant response rating, Pigweed [3, 17]: 60 | Plant response rating, Pigweed [3, 18]: 0 | Plant response rating, Pigweed [3, 19]: 100 | Plant response rating, Cupgrass, Woolly [4, 17]: 20 | Plant response rating, Cupgrass, Woolly [4, 18]: 0 | Plant response rating, Cupgrass, Woolly [4, 19]: 100 | Plant response rating, Nightshade (Nightshade; Rate 31 g/ha, scale 0 to 100): 0 | Plant response rating, Nightshade (Nightshade; [20]): 0 | Plant response rating, Nightshade (Nightshade; [21]): 100 | Plant response rating, Crabgrass [5, 17]: 90 | Plant response rating, Crabgrass [5, 18]: 40 | Plant response rating, Crabgrass [5, 19]: 100 | Plant response rating, Surinam grass [6, 17]: 70 | Plant response rating, Surinam grass [6, 18]: 0 | Plant response rating, Surinam grass [6, 19]: 90 | Flatsedge plant response rating ([7]; Rate 250 g/ha): 100 | Flatsedge plant response rating ([7]; Rate 500 g/ha): 100 | Plant response rating, Flatsedge ([7]; Rate 62 g/ha): 100 | Plant response rating, Flatsedge ([7]; Rate 125 g/ha): 100 | Plant response rating (scale 0 to 100), Flatsedge [7, 22]: 100 | Plant response rating (scale 0 to 100), Flatsedge [7, 23]: 100 | Barnyardgrass plant response rating ([8]; Rate 250 g/ha): 100 | Barnyardgrass plant response rating ([8]; Rate 500 g/ha): 100 | Plant response rating, Barnyardgrass ([8]; Rate 62 g/ha): 100 | Plant response rating, Barnyardgrass ([8]; Rate 125 g/ha): 100 | Plant response rating (scale 0 to 100), Barnyardgrass [8, 22]: 70 | Plant response rating (scale 0 to 100), Barnyardgrass [8, 23]: 50 | Ducksalad plant response rating ([9]; Rate 250 g/ha): 100 | Ducksalad plant response rating ([9]; Rate 500 g/ha): 100 | Plant response rating, Ducksalad ([9]; Rate 62 g/ha): 100 | Plant response rating, Ducksalad ([9]; Rate 125 g/ha): 100 | Plant response rating (scale 0 to 100), Ducksalad [9, 22]: 90 | Plant response rating (scale 0 to 100), Ducksalad [9, 23]: 80

COC(=O)c1cccc(N2CCC(n3ccc(C(C)(C)C)n3)C2=O)c1 (stereo not shown) [Compound 73]
Plant response rating, Goosegrass [10, 17]: 80 | Plant response rating, Goosegrass [10, 21]: 100 | Plant response rating, Goosegrass [10, 18]: 60 | Plant response rating (0 to 100), Goosegrass [10, 24]: 100 | Plant response rating, Nutsedge [11, 17]: 0 | Plant response rating, Nutsedge [11, 21]: 30 | Plant response rating, Nutsedge [11, 18]: 0 | Plant response rating, Nutsedge [11, 25]: 50 | Plant response rating, Sunflower (Sunflower): 50 | Plant response rating, Bermudagrass [12, 17]: 70 | Plant response rating, Bermudagrass [12, 21]: 100 | Plant response rating, Bermudagrass [12, 18]: 60 | Plant response rating (0 to 100 where 0 is no effect and 100 is complete control), Bermudagrass [12, 24]: 100 | Plant response rating, Johnsongrass [13, 17]: 20 | Plant response rating, Johnsongrass [13, 21]: 30 | Plant response rating, Johnsongrass [13, 18]: 0 | Plant response rating (0 to 100), Johnsongrass [13, 24]: 50 | Plant response rating, Morningglory [14, 17]: 30 | Plant response rating, Morningglory [14, 21]: 30 | Plant response rating, Morningglory [14, 18]: 30 | Plant response rating, Morningglory [14, 25]: 100 | Plant response rating, Foxtail, Giant [2, 17]: 80 | Plant response rating, Foxtail, Giant [2, 21]: 100 | Plant response rating, Foxtail, Giant [2, 18]: 20 | Plant response rating (0 to 100), Foxtail, Giant [2, 24]: 100 | Plant response rating, Soybean (soybean (Glycine max); [21]): 40 | Plant response rating, Soybean (soybean (Glycine max); [18]): 0 | Plant response rating, Soybean (soybean (Glycine max); [25]): 70 | Plant response rating, Kochia (kochia (Kochia scoparia); [17]): 80 | Plant response rating, Kochia (kochia (Kochia scoparia); [21]): 100 | Plant response rating, Kochia (kochia (Kochia scoparia); [18]): 20 | Plant response rating (0 to 100), Kochia (kochia (Kochia scoparia); [24]): 100 | Plant response rating, Corn (corn (Zea mays); [17]): 0 | Plant response rating, Corn (corn (Zea mays); [21]): 0 | Plant response rating, Corn (corn (Zea mays); [18]): 0 | Plant response rating (0 to 100), Corn (corn (Zea mays); [24]): 0 | Plant response rating, Pigweed [3, 21]: 0 | Plant response rating, Pigweed [3, 18]: 0 | Plant response rating, Pigweed [3, 25]: 40 | Plant response rating, Cocklebur [15, 17]: 70 | Plant response rating, Cocklebur [15, 18]: 20 | Plant response rating (0 to 100), Cocklebur [15, 24]: 80 | Plant response rating, Velvetleaf [16, 21]: 50 | Plant response rating, Velvetleaf [16, 18]: 20 | Plant response rating, Velvetleaf [16, 25]: 60 | Plant response rating, Cupgrass, Woolly [4, 17]: 60 | Plant response rating, Cupgrass, Woolly [4, 21]: 80 | Plant response rating, Cupgrass, Woolly [4, 18]: 20 | Plant response rating (0 to 100), Cupgrass, Woolly [4, 24]: 100 | Plant response rating, Nightshade (Nightshade; Rate 31 g/ha, scale 0 to 100): 50 | Plant response rating, Nightshade (Nightshade; [20]): 60 | Plant response rating, Nightshade (Nightshade; Rate 125 g/ha; scale 0 to 100, 0 no effect, 100 complete control): 80 | Plant response rating, Nightshade (Nightshade; Rate 250 g/ha, scale 0 to 100, 0 no effect, 100 complete control): 100 | Plant response rating, Crabgrass [5, 17]: 90 | Plant response rating, Crabgrass [5, 21]: 100 | Plant response rating, Crabgrass [5, 18]: 90 | Plant response rating (0 to 100), Crabgrass [5, 24]: 100 | Plant response rating, Surinam grass [6, 17]: 50 | Plant response rating, Surinam grass [6, 21]: 70 | Plant response rating, Surinam grass [6, 18]: 20 | Plant response rating (0 to 100), Surinam grass [6, 24]: 70 | Flatsedge plant response rating ([7]; Rate 250 g/ha): 100 | Flatsedge plant response rating ([7]; Rate 500 g/ha): 100 | Plant response rating, Flatsedge ([7]; Rate 62 g/ha): 90 | Plant response rating, Flatsedge ([7]; Rate 125 g/ha): 100 | Barnyardgrass plant response rating ([8]; Rate 250 g/ha): 100 | Barnyardgrass plant response rating ([8]; Rate 500 g/ha): 100 | Plant response rating, Barnyardgrass ([8]; Rate 62 g/ha): 30 | Plant response rating, Barnyardgrass ([8]; Rate 125 g/ha): 70 | Ducksalad plant response rating ([9]; Rate 250 g/ha): 100 | Ducksalad plant response rating ([9]; Rate 500 g/ha): 100 | Plant response rating, Ducksalad ([9]; Rate 62 g/ha): 70 | Plant response rating, Ducksalad ([9]; Rate 125 g/ha): 90
